The subject of this experiment is staminode and petal base explants of cacao genotype Sca-6. Briefly: Somatic embryogenesis from cacao floral explants cultured on PCG medium containing various concentrations of TDZ. Format: cell-based, Theobroma cacao L. As to the method:
Primary callus growth (PCG) medium was prepared by combining the following solutions and compounds (per liter): 100 ml each DKW macro solutions A and B, 10 ml DKW micro solution, 1 ml DKW vitamin solution, 20 g glucose, 250 mg glutamine, 100 mg myo-inositol, 100 ml 2,4-D solution, 10 ml TDZ solution, and 2.0 g phytagel, and the pH was adjusted to 5.8.
The staminodes and petal base explants from the four flower buds were then transferred into a Petri dish containing 30 ml of PCG medium. Any fused staminodes and petal base explants were separated and explants were distributed evenly across the medium. The Petri dishes were sealed with a double layer of parafilm and cultures were maintained in the dark at 25±2° C. for 14 days (FIG. 2a). Growth reduction, senescence, and tissue browning may occur with subculture intervals longer than 14 days.
The staminode and petal base explants were then transferred from a PCG medium to a Petri dish containing 30 ml of SCG medium. The dishes were sealed and the cultures were maintained in the dark for 14 days at 25±2° C. Globular calli were produced on the entire tissue explant at the end of this culture period (FIG. 2b).
Staminode and petal base explants and calli derived in the callus induction step were transferred to Petri dishes containing 30 ml of ED medium. Explants were cultured in the dark for 14 days at 25±2° C. Explants were then subcultured onto the fresh ED medium and maintained in the dark for another 14 days. By that time, numerous somatic embryos at globular and heart-shaped stages of development were visible on the embryogenic calli (FIG. 2c and d).
The effect of TDZ concentration on somatic embryogenesis from staminode explants of five cacao genotypes was determined and is shown in FIG. 3. Staminodes were cultured on PCG medium containing various concentrations of TDZ. […] Data were collected two months after culture initiation. Each treatment contained 20 staminodes per plate with three replicate plates. The values shown in FIG. 3 represent the average percentage rates of embryo-producing staminodes from three repeated experiments. Up to 100% of cultured staminode and over 60% of petal base explants from cacao genotype Sca-6 produced somatic embryos (FIG. 3).
The effect of TDZ concentration on somatic embryo production from staminode explants of five cacao genotypes was determined and is shown in FIG. 4. Staminodes were cultured on PCG medium containing various concentrations of TDZ. […] Data were collected two months after culture initiation. Each treatment contained 20 staminodes per plate with three replica plates. Values represent the average number of somatic embryos per responsive staminode from three repeated experiments. […]

Where [1] appears, read: two months after culture initiation, FIG. 4.

The text below walks through data of patent publication US20010047524A1, “Methods and tissue culture media for inducing somatic embryogenesis, agrobacterium-mediated transformation and efficient regeneration of cacao plants” (priority 1997, published 2001).

Consider `O=C(Nc1ccccc1)Nc1cnns1` [TDZ, thidiazuron], for which, under “FIG. 3”, the “petal base explants that produced somatic embryos” value was “over 60%”. The “cultured staminode explants that produced somatic embryos” value (PCG medium with various TDZ concentrations, then SCG and ED medium, two months after culture initiation, FIG. 3) is listed as “Up to 100%”. Moreover, under setting [1], the “average number of primary somatic embryos per responsive staminode” value was “about 46” and the “primary somatic embryos produced by a single staminode explant (maximum)” value was “up to 140”.
